Columns and labels:
[1] = system: MCM4 gene promoter in A3 cells; experiment: Oxidative DNA damage within MCM4 gene promoter (qPCR); assay type: cell-based, human; settings: 10 μM, 72 h
Procedure: We adapted the procedure described by O’Callaghan et al. ([46]) to measure oxidative DNA damage at the MCM4 gene promoter region. This is a qPCR method based on differences in PCR kinetics between DNA template digested by FPG and undigested DNA. We have modified the original protocol to incorporate another purified human OGG1 to quantify the accumulation of base lesions specific for OGG1, 8-oxoguanine. Conditions used for incubation were 200 ng of gDNA together with 2.4 μM of hOGG1 during 4 h. The quantitative real-time amplification of genomic DNA was performed as described by O’Callaghan et al. ([46]). Specific primers were used at a final concentration of 100 nM (promoterMCM4-F: 5′-GCTGTGATTGGTGAGGCCC -3′; promoterMCM4-R: 5′-CAAACCGCGAGACCCAGAG-3′) . Amplification cycling conditions were 10 min at 95°C, followed by 40 cycles of 95°C for 15 s and 60°C for 1 min. ΔCT method was run in an ABI quant studio 1 and all samples were loaded and analyzed in triplicate.
Figure 6. TH5487 treatment induces a downregulation of DNA replication genes (A) Gene Set Enrichment analysis plot of the DNA Replication Gene Ontology Gene Set. […] Only genes with a mean normalized count >5 were analyzed. […] Statistical significance was determined using a two-sided unpaired t-test (ns, non-significant, *P < 0.05, **P < 0.01, ***P < 0.001 and ****P < 0.0001).

[2] = system: primary blood cells (CD34+ cells, CD34- fraction from cord blood, PBMCs); experiment: Resazurin viability of primary blood cells; assay type: cell-based, human
Procedure: Cells were seeded in 96- or 384-well plates and incubated for 3 days for combination experiments or 5 days for single-drug exposure experiments. Resazurin (R7017, SigmaAldrich) was added to a final concentration of 0.01 mg/ml resazurin and fluorescence was measured at ex530/em590 after incubation for 2, 4 or 6 h. Curves were fitted using XLfit software (IDBS) or Prism 8.0 (Graphpad Software), and EC50 values were determined.
Peripheral blood mononuclear Cells (PBMC) were isolated from peripheral whole blood from controls using Histopaque®-1077 (Sigma-Aldrich, San Luis, MO, USA) following the manufacturer's instructions. Briefly, peripheral blood was collected in heparin and diluted with equal amount of PBS. Next, blood was centrifuged with Histopaque®-1077 at 400 × g for 30 min at room temperature and the PBMC layer was recovered. All steps were processed within 4 h after blood extraction.
Isolation of total CD34+ cells was performed from umbilical cord blood samples (CB) from healthy donors distributed from Centro de Transfusión de la Comunidad de Madrid. All samples were collected under written consent and institutional review board agreement. CD34+ cells was obtained from mononuclear cells were separated by fractionation in Ficoll-hypaque according to manufacturer's recommendations (GE Healthcare). […]

## O=C(Nc1ccc(I)cc1)N1CCC(n2c(=O)[nH]c3c(Br)cccc32)CC1 [TH5487]
[1]
  Oxidative DNA damage at SP1 binding motif of MCM4 promoter: significant accumulation of oxidative DNA damage
[2]; CD34+ cells, resting and activated CD34- cells from umbilical cord blood, healthy donors
  Tolerance by hematopoietic primary cells: well tolerated
[2]; primary blood cells from healthy donors, activated or not, read-out: EC50, average over primary blood cells
  EC50: 35.1 ± 20 µM
